Source: patent US20140378460A1, “COMPOSITIONS AND METHODS FOR TREATING NEURODEGENERATIVE DISEASE” (COGNITION THERAPEUTICS, INC., priority 2011, published 2014)
Entries after “also recorded” stand apart in the source; their conditions may differ. Read-outs that look alike come from different tables or passages of the source.

Key:
[1] = system: Abeta oligomer-induced membrane trafficking deficits in primary hippocampal neurons; assay: Membrane trafficking/exocytosis (MTT) assay; format: cell-based, rat; settings: for EC50: Rattus norvegicus, Hippocampal neuron; for Effect on membrane trafficking when dosed alone (words): absence of Abeta oligomers; for Effect against human Alzheimer's patient-derived Abeta oligomers (words): oligomers isolated from AD patient brains
[2] = system: SKOV-3 human ovarian cancer cell line; assay: MTS tumor cell viability assay; format: cell-based
[3] = target: alpha 1A (h) (antagonist effect) (Homo sapiens, UniProt P35348); assay: Receptor panel, block of downstream signaling; format: cell-based; settings: read-out: % Inhibition of Control
alpha 1A (h) (antagonist effect), sequence (P35348 whole entry): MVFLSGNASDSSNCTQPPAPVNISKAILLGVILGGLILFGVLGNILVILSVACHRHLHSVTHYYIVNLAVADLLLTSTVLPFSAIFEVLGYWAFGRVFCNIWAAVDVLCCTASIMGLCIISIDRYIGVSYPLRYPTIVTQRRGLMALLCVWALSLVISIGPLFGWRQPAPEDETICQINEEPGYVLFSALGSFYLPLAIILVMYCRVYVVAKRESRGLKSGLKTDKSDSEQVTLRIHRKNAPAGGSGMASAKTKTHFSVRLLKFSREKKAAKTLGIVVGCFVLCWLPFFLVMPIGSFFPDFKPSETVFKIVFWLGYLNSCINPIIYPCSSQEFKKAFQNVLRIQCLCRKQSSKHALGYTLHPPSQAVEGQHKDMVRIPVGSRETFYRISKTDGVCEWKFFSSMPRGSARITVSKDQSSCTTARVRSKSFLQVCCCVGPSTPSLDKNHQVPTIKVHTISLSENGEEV
Procedure: (§1) It was also tested for its ability to block downstream signaling induced by agonists or antagonists of a given human receptor.

D3(h) (agonist effect) = D3(h) (agonist effect) (Homo sapiens, UniProt P35462); assay: Receptor panel, block of downstream signaling; format: cell-based
D3(h) (agonist effect), sequence (P35462 whole entry): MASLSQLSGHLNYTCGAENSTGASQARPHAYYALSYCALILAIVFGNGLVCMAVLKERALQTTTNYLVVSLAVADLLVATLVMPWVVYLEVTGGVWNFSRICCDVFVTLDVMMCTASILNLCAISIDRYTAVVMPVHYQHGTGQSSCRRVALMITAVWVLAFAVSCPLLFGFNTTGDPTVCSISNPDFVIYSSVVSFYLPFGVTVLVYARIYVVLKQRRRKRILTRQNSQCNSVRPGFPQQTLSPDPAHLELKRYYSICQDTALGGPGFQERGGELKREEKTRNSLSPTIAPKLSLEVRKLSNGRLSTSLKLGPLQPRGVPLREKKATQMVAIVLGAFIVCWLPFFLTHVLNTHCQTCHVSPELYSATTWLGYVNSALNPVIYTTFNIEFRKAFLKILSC
Procedure: as §1

HepG2 tumor cell line = assay: HepG2 toxicity; format: cell-based; settings: 10 μM
[4] = Genotoxicity (AMES, micronucleus, bacterial cytotox); settings: 10 μM
[5] = system: hAPP transgenic mice (Swedish and London mutations); assay: Morris water maze in hAPP transgenic mice; format: in vivo, mouse; settings: II 0.5 mg/kg/day; subcutaneous minipump
Procedure: In this study, rather than preventing deficits from occurring, deficits that were already established were treated. These studies were performed pursuant to a service contract by scientists who were blind to the experimental conditions. […]
The swim speed was analyzed as part of the Morris measurements to determine if there were any motor or motivational deficits. Our vehicle is a 5% DMSO/5% Solutol, 90% saline mixture. […] The average of three daily trials on each of four consecutive days were determined.
Escape latency measurements from the Morris water test were taken.
During the final four days of treatment, mice were tested to find the hidden platform in three trials/day. A computerized tracking system automatically quantified escape latency, or swim length.

[6] = system: Abeta oligomer binding to primary neurons; assay: Abeta 1-42 oligomer binding assay; format: cell-based, rat
Procedure: In this assay, Abeta oligomers were brought in contact with mature primary neurons in culture and their binding was determined by immunohistochemistry (anti-Abeta antibody) and quantified by image processing. The amount of Abeta in neuronal dendrites is assessed by counting the number of labeled puncta on the neuritis. […] This labeling is associated with synapses, co-localizing with the post-synaptic scaffold protein PSD-95 (Lacor et al., '04). […] The number of synapses can also be quantified in this assay by immunofluorochemistry. Similar procedures for binding assays can be found in the literature. […] Review.
Primary hippocampal neuronal culture was established as in the membrane trafficking assay above. […] Pretreatment with compounds to be tested lasted for 1 hr and addition of Abeta oligomers or no oligomer (vehicle alone) in a final concentration of 70 ul was followed by incubation for an additional 23 hrs.
The plates were then washed 3× with PBS for 5 min each. The plates were blocked at RT for 1 hr in 5% goat serum and 0.5% Triton X-100 in PBS. […] Primary antibodies were incubated overnight at 4° C. The plates were then washed 3× with PBS for 5 min each. […] Secondary antibodies were incubated at RT for 1 hr. The plates were washed once with PBS. DAPI (4′,6-diamidino-2-phenylindole, Invitrogen) was then applied at 0.03 ug/ul and incubated at RT for 5 min, then washed with PBS.

[7] = target: mu (MOP) (h) (agonist radioligand) (Homo sapiens, UniProt P35372); assay: Receptor panel, inhibition of binding
mu (MOP) (h) (agonist radioligand), sequence (P35372 whole entry): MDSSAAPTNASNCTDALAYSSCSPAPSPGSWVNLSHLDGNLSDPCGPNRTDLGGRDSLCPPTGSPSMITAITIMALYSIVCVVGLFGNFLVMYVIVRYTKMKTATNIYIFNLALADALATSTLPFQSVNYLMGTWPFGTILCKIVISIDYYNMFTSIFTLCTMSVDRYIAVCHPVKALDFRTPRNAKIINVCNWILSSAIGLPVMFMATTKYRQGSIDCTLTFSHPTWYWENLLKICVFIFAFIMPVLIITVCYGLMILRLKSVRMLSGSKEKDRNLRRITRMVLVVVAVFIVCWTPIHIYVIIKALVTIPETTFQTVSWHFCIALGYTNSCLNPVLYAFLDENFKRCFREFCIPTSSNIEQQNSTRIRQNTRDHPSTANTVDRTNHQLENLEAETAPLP

Sigma-1 receptors = Sigma-1 receptors (Homo sapiens, UniProt Q99720); assay: Sigma-1 competitive radioligand binding, [3H](+)pentazocine, Jurkat cell membranes
Sigma-1 receptors, sequence (Q99720 whole entry): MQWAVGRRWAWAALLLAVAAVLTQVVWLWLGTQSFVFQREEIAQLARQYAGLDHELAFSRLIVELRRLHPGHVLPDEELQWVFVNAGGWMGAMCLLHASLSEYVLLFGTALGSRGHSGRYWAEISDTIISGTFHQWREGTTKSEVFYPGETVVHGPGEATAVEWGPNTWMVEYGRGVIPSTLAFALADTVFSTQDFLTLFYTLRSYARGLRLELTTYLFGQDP
Procedure: Reactions were terminated by rapid filtration through Whatman GF/C filters using a Brandel 12R cell harvester followed by two washes with ice-cold buffer. Radioactivity on the dried filter discs was measured using a liquid scintillation analyzer (Tri-Carb 2900TR; PerkinElmer Life and Analytical Sciences). The displacement curves were plotted and the Ki values of the test ligands for the receptor subtypes were determined using GraphPad Prism (GraphPad Software Inc., San Diego, Calif.). The percentage specific binding was determined by dividing the difference between total bound (disintegrations per minute) and nonspecific bound (disintegrations per minute) by the total bound (disintegrations per minute).

sigma-2 receptor = settings: 1 μM each; 18.4 nM [3H]-RHM-1
[8] = read-out: % Inhibition of Control

**Q.** For `COc1cc(CCC(C)NCc2ccc(C(F)(F)F)cc2)ccc1O` (stereo not shown) [Compound II], which “Effect on Abeta oligomer trafficking deficits over the concentrations tested” value [1] is on record?
**A.** blocks oligomer-induced trafficking deficits at all concentrations tested

**Q.** And the “Max Inhibition of Abeta (%)” value [1]?
**A.** 68%

**Q.** What about the Ki ([1]; Km for Abeta = 0.4 uM, assay concentr. 3 μM total Abeta, read-out: Calculated Ki) of the same compound?
**A.** 0.26 µM

**Q.** What about the EC50 ([1]; Table 11A, read-out: Block Aβ-induced membrane trafficking deficits EC50) of the same compound?
**A.** 2.2 µM

**Q.** What about the EC50 ([1]; Table 11B, read-out: Inhibition Abeta oligomer-induced Membrane Trafficking EC50) of the same compound?
**A.** 2.2 µM

**Q.** What about the EC50 ([1]; Table 12, read-out: EC50) of the same compound?
**A.** 2.2 µM

**Q.** What about the EC50 ([1]; added after oligomers (treatment mode), read-out: EC50 blocking oligomer effects) of the same compound?
**A.** 4.1 µM

**Q.** What about the EC50 ([1]; added before oligomers (prevention mode), read-out: EC50 blocking oligomer effects) of the same compound?
**A.** 2.2 µM

**Q.** And the “Functional Neuronal Phenotype” value ([1]; Table 11B)?
**A.** Antagonist

**Q.** And the “Effect on membrane trafficking when dosed alone (words)” value [1]?
**A.** no significant effect on membrane trafficking

**Q.** And the “Effect on membrane trafficking when dosed alone (words)” value ([1]; listed as compound II)?
**A.** does not affect membrane trafficking

**Q.** And the “Cpd alone at Ki” value ([1]; compound without Abeta oligomers)?
**A.** +1%

**Q.** What about the “Max Inhib. of Abeta (Conc)” value ([1]; concentration in brackets) of the same compound?
**A.** 85% (10)

**Q.** What about the “Effect against human Alzheimer's patient-derived Abeta oligomers (words)” value [1] of the same compound?
**A.** completely eliminated

**Q.** And the “Effect against human Alzheimer's patient-derived Abeta oligomers (words)” value ([1]; listed as compound II)?
**A.** rightward shift; also recorded: blocks the membrane trafficking deficits

**Q.** And the Schild slope ([1]; synthetic Abeta oligomers)?
**A.** −0.75

**Q.** And the “Assay effects in the absence of Aβ” value ([1]; trafficking or synapse number without Abeta oligomer)?
**A.** No

**Q.** What about the IC50 ([2]; Homo sapiens, SK-OV-3, tumor cell viability, 48 hrs) of the same compound?
**A.** 150 ± 12 µM

**Q.** And the Action ([2]; by EC50 relative to siramesine)?
**A.** Antagonist

**Q.** And the inhibition at 10 µM [3]?
**A.** 56%

**Q.** And the “Other Targets: D3” value (D3(h) (agonist effect); Table 11E)?
**A.** D3 (4 uM), Mu

**Q.** And the inhibition at 10 µM (D3(h) (agonist effect); [8])?
**A.** 66%

**Q.** What about the HepG2 toxicity (HepG2 tumor cell line) of the same compound?
**A.** 66%

**Q.** And the “Genotoxicity” value [4]?
**A.** no genotoxicity

**Q.** What about the “Morris water maze performance versus vehicle-treated transgenic animals” value [5] of the same compound?
**A.** significant improvement in transgenic performance

**Q.** And the “Decrease of Abeta binding intensity (Abeta puncta)” value ([6]; FIG. 3D)?
**A.** 18%

**Q.** What about the “Partial block of binding of Abeta oligomer ligand to neurons” value ([6]; imaging processing algorithm) of the same compound?
**A.** about 25%

**Q.** What about the “Other Targets: Mu opioid” value ([7]; Table 11E) of the same compound?
**A.** opioid (4 uM),

**Q.** What about the inhibition at 10 µM [7, 8] of the same compound?
**A.** 60%

**Q.** And the Ki (Sigma-1 receptors; Ki at sigma-1 receptors, displacement of [3H]-(+)-pentazocine, human Jurkat cell membranes)?
**A.** 500 nM

**Q.** What about the Ki (Sigma-1 receptors; S1 binding Ki (nM), Table 11B) of the same compound?
**A.** 500 nM

**Q.** What about the Ki (Sigma-1 receptors; Sigma 1 Binding Ki (nM), Table 2, own compounds) of the same compound?
**A.** 500 nM

**Q.** What about the Ki (Sigma-1 receptors; Sigma Affinity (S1) nM, Table 11E, own compounds) of the same compound?
**A.** 500 nM

**Q.** What about the “Displacement of [3H]-RHM-1” value (sigma-2 receptor) of the same compound?
**A.** partially displace
